Here are results for two molecules from patent US4695576A, “L-N-n-propylpipecolic acid-2,6-xylidide” (priority 1985, dated 1987).

The test system of data set [1] is tissue. Conditions: in vivo, cited from earlier work.
For data set [2] the following is noted: listed as 5; cited from earlier work.
The test system of data set [3] is tissue. Kind of data set: Tissue toxicity limits (Trypan blue test, threshold of tissue irritancy). It counts as in vivo. The settings on record: Trypan blue test; approximate threshold values of tissue irritancy; racemate. The text has this: The toxicity of the homologous series of N-alkylpipecolic acid-2,6-xylidides increases step wise and quickly with the lengthening of the alkyl chain. This is manifest from Table 1 set forth below, which compares racemic mixtures of alkyl homologues having from 1 to 5 carbon atoms.
*Trypan blue test; Hoppe et al. (1950), 39, 147-151 "Use of Trypan Blue
and Rabbit Eye Tests For Irritation", J. Amer. Pharm. Assoc. (Scient.
Ed.), the values are approximate threshold values of tissue irritancy.

Data set [4] can be described thus: in vivo. The settings on record: mouse, iv, 50% mortality of mice, racemate.
For data set [5], the system named is peripheral nerve endings of the epidermis. Nature of the data set: Intracutaneous wheals, infiltration anesthesia on forearms of man. It is filed as in vivo. Conditions: Conc. 0.25%; 12 healthy volunteers, pinprick. The source says:
By use of intracutaneous wheals it is possible to measure the analgesic effect of an anesthetic on the peripheral nerve endings of the epidermis.
This technique gives information about:
(1) The duration of anesthesia.
^1 Infiltration anesthesia on forearms of man. The test solutions wer
injected intracutaneously on the dorsum of the forearms of 12 healthy
volunteers, 20-25 years old. Three wheals were made on each arm in a
rotating system in a doublebind fashion. The local anesthetic effect was
tested using a pinprick technique. The "duration of anesthesia" was
defined as the time during which none out of six pinpricks into the wheal
was felt. The method has been described by Dhuner et al. (1972). […]

Data set [6] relates to ulnar volar nerves. Nature of the data set: Finger blockade, digital nerve blocks in man. It is filed as in vivo. The settings on record: Concentration 0.25%. The protocol:
^2 Digital nerve blocks in man. The test solutions were injected to
block the ulnar volar nerves on the 2nd and 4th fingers of the same
volunteers who had participated in the intracutaneous wheal tests
described above. The tests were carried out in a double blind fashion in
rotating system, so that each solution was used with equal frequency on
each of the blocked fingers. A total of for injections 1.0 ml per
injection, was done in each subject. One week later the procedure was
repeated in the same subjects using the remaining test solutions. This
method has been described by Dhuner et al. (1972) (for citation see Table
2 footnote 1). To measure the efficacy and duration of the blocks, the
individual fingers were pricked rapidly 10 times with a needle algesimete
and the number of painful pricks noted. Each finger was tested every five
minutes until complete recovery. The time of complete anesthesia has been
called "duration of anesthesia".
*i.e. the time from injection to complete analgesia?
**i.e. the number of successful anesthesias of total number of
anesthesias performed (no anesthesia is possible if the ulnar volar nerve
are not contacted by the anesthetic).

Data set [7] concerns skin. Kind of data set: Skin temperature measurements within intracutaneous wheals. It counts as in vivo, man. Conditions: Conc. 0.25%, HCl-salt, 10 minutes after injection. The method, then:
The mean value of 6 wheals for each substance forms the basis for the values. The control values, however, represent the mean value obtained from 4 different sites measured outside the wheals 90 degrees apart and 2 centimeters from the wheal's center.
In the temperature measurements, an Oriel temperature apparatus* has been used. This is battery driven and is connected to a detector (diameter, 2.5 mm) and has an accuracy of ±0.1° C. The temperature of the skin is measured by pressing the detector against the skin with a pressure of 100 grams. It is retained against the skin until a constant temperature is obtained.
In Table 4, T1 is the measurement obtained at the center of the wheal, and T2 is the average of four measurements taken 90 degrees apart outside of the wheal and within 2 centimeters of the wheal's center.

The test system of data set [8] is conscious rats. Nature of the data set: Heart-toxicity in conscious rats (ECG). It counts as in vivo, Male Sprague Dawley rats. Conditions: rat, in vivo. The protocol: Male Sprague Dawley rats weighing 290-360 grams were prepared with intravenous catheters under local anesthesia using prilocaine (Citanest*) one hour before experiments. Rapid intravenous bolus injections over 5.0 seconds were given to groups of 8 rats, with a single injection to each animal. […] The ECG was recorded on a Mingograf 34. Convulsions were recorded manually with an electronic marker on one channel of the Mingograf. Only "primary" arrhythmias occurring during the first 60 seconds have been analyzed to avoid confusion with late arrhythmias occurring secondary to respiratory arrest or cardiovascular collapse.

Data set [9] relates to pigs. Kind of data set: Intracoronary administration in anesthetized pigs. It counts as in vivo, pig. The method, then:
Eight pigs weighing around 50 kg were anesthetized with a continuous infusion of pentobarbital at 600 mg/h. Ventilation was established via a tracheotomy with 30% oxygen in nitrogen and normoventilation by a Siemens-Elema Servoventilator 900B. The following catheters were inserted after cutdown: Left ventricular, aortic, pulmonary arterial, great cardiac venous, left anterior descending coronary, arterial and central venous. […] The corresponding doses for bupivaciane were 0.25, 0.5, 1, 2 and 4 mg and for LEA 0.33, 0.66, 1.33, 2.66 and 5.33 mg. The injection rate was adjusted according to the preinjection coronary blood flow. Each series of drug injections was preceded by a placebo infusion. Total hemodynamic and electrocardiographic recovery was allowed between doses and there was a one hour resting period between drugs.
Central pressures, left ventricular dP/dT and a complete chest lead ECG were recorded continuously. Cardiac output and great cardiac venous blood flow were determined before and directly after each dose of the local anesthetic agent.

Data set [10] deals with T1, guinea-pig papillary muscle sodium channels (Cavia porcellus, UniProt H0V4Z8).
T1 construct: Vmax of action potential as measure of sodium current
Nature of the data set: Action on guinea-pig papillary muscle sodium channels (Vmax, recovery from block). It counts as cell-based. The text has this: Depression of cardiac conduction appears to be one of the primary mechanisms underlying local anesthetic cardiotoxicity. Depression of conduction by local anesthetics in both nerve and cardiac tissue results from a block of sodium channels. Furthermore, the degree of sodium channel block by local anesthetics is dependent upon the state of the sodium channel. […] Consequently, a block of sodium channels develops during the upstroke and plateau of the action potential and dissipates during the diastolic interval between beats. Since the effect of a local anesthetic is both state and time dependent, changes in both heart rate and diastolic membrane potential may alter drug action substantially.
(§1) Guinea pig papillary tests were carried out according to the recommendation of the "Report of the Subcommittee on Cardiotoxicity of Local Anesthetics" (Leroy D. Vandam, M.D., chairman). Guinea pig papillary muscle excised from the right ventricle were mounted in a single sucrose gap apparatus (Arlock & Katzune, 1985). Solutions maintained at 37° C.±0.5° continuously perfused the gap compartments. The rear chamber contained isotonic potassium chloride solution. The drugs were added to a Tris-Tyrode solution passing the tip of the muscle. The Tris-Tyrode solution contained (mM): NaCl, 145; KCl, 4; CaCl2, 1.2; MgCl2, 1.05; glucose, 5.5 Tris maleate, 5. It was adjusted to pH 7.4 with trismaleate and HCl before use and gassed with 100% oxygen. Isotonic sucrose solution isolated the rear from the tip to enable current- and voltage-clamping.
The muscles were depolarized with long current pulses (1500 msec). These current steps can induce automaticity or DIA (depolarization induced automaticity). The steps were adjusted so the preparations were depolarized to from -50 to -30 mV since that is in that range that calcium current conductance is initiated.
The results represent the mean from representative experiments. In the absence of drug, Vmax (maximum upstroke velocity of the action potential) recovers from inactivation with an exponential time constant of less that 30 msec at -90 mV (Gettes and Reuter, 1974). […] The time constant of this recovery process is different for channels blocked by different drugs.

Data set [11] can be described thus: Force of contraction of guinea pig papillary muscle. It counts as cell-based. The settings on record: guinea pig, papillary muscle. The protocol:
(§2) In order to initiate an investigation without the necessity to involve voltage-clamp of the calcium current, the preparations were subject to long depolarizing induced automaticity. If the cells are depolarized from about -50 to about -30 mV the automaticity is dependent on a transmembrane calcium current.
as §1, with “Guinea pig papillary muscle excised from the right ventricle were mounted in a single sucrose gap apparatus (Arlock & Katzune, 1985).” left out, “The Tris-Tyrode solution contained (mM): NaCl, 145; KCl, 4; CaCl2, 1.2; MgCl2, 1.05; glucose, 5.5 Tris maleate, 5.” left out
(§3) The force of contraction was measured with a strain gauge transducer before and after the addition of the test compounds to the medium. The percent reduction in maximum force of contraction from the control was calculated.

For data set [12], the system named is guinea pig papillary muscle. The data set is described as above. It counts as cell-based. The protocol: as §2
as §1, with “Guinea pig papillary muscle excised from the right ventricle were mounted in a single sucrose gap apparatus (Arlock & Katzune, 1985).” left out, “The Tris-Tyrode solution contained (mM): NaCl, 145; KCl, 4; CaCl2, 1.2; MgCl2, 1.05; glucose, 5.5 Tris maleate, 5.” left out
as §3

Data set [13] concerns guinea pig papillary muscle. The settings on record: Block and Covino, 1981, Courtney, 1984, Kotelko et al.; cited from earlier work.

Where two headings read alike, the source gives them in different places.

On to `CCCCCN1CCCCC1C(=O)Nc1c(C)cccc1C` (centres unmarked) [5 R, N--n-pentylpipecolic acid-2,6-xylidide], for which the tissue irritation result in data set [1] is “irritating”; in data set [1] (listed as 5), “too irritating against tissue”. Besides, the solubility in water entry in [2] was “slightly soluble”.
With `CCCCN1CCCCC1C(=O)Nc1c(C)cccc1C` (racemic) [4 R, N--n-butylpipecolic acid-2,6-xylidide], the “Tissue toxicity limits in %” value in data set [3] turned out to be 0.75%. Also, the LD50 (usually the dose at which mortality reaches 50%) in data set [4] was determined as 7.8 mg/kg. In data set [5], the “Analgesia-duration, intracutaneous wheals” value came to 118 ± 15 min. In data set [6], the “Analgesia-duration, finger blockade” value was found to be 388 ± 50 min and the “Frequency (successful anesthesias of total performed)” value is recorded as 15/20. Besides, the “Time of onset, finger blockade” value in [6] (time from injection to complete analgesia) came out at 9 ± 2 min. In addition, the “Temperature Difference (T1 wheal vs T2 controls)” value in data set [7] is -0.6 °C. For the same molecule, the “T1 Intracutaneous Wheal temperature” value in [7] (mean of 6 wheals) was 31.5 °C. Further, the “potency to induce atrioventricular conduction disturbances” value in data set [8] was “most potent”. In addition, the “death in ventricular fibrillation” value in data set [9] (4 mg intracoronary, eight pigs) is “Two animals died in ventricular fibrillation”. The “ventricular fibrillation (VF), time after injection” value in data set [9] (4 mg intracoronary, listed as bupivacaine) is at most 33 s. Moreover, the sudden cardiac collapse entry in [9] (intracoronary) is given as “occurred”. Moreover, the “affinity for the activated and inactivated channels” value in data set [10] is given as “very high affinity”. The “recovery to 90% of drug-blocked channels” value in [10] (-90 mV) is 3561 ms. For the same molecule, the “potency on cardiac sodium channels” value in data set [10] (equimolar concentrations) is “highest”. In addition, the “recovery from block” value in data set [10] (especially at hyperpolarized levels (-100--120 mV)) is “very slow”. For the same molecule, in data set [11], the inhibition (in general, the drop in the measured response relative to a control, in per cent) at 5 µM amounted to 45.1% and the inhibition at 10 µM stood at 41.7%. Besides, the “effect on force of contraction/contractility” value in data set [12] was “pronounced depressant action”. For the same molecule, the negative inotropic effect entry in data set [13] is given as “potent negative inotropic effect”.
